Patent US12612412B2, “Antiviral heterocyclic compounds” (Enanta Pharmaceuticals, Inc., priority 2021, dated 2026)
Like-named read-outs stand apart in the source and are kept apart here.

Key:
[1] = tested on: genotype A, "Long" strain RSV; experiment: RSV-A assay (CPE protection in Hep-2 cells, ATPlite readout); type: cell-based, Human respiratory syncytial virus (HRSV); conditions: human respiratory syncytial virus, MOI 0.1, CPE protection
Outline: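 Hep-2 cells (8,000/well) were treated with 2-fold serial compound dilutions in duplicate and infected with RSV at MOI 0.1. After 5 days, protection from cytopathic effect was measured as cell viability by ATPlite luminescence, and EC50 values were derived.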

[2] = tested on: HMPV clinical isolate TN/1501/A1; experiment: HMPV antiviral assay Method-B (clinical isolate TN/1501/A1 in LLC-MK2 cells, ATP-Lite readout); type: cell-based, Human metapneumovirus (HMPV); conditions: human metapneumovirus, LLC-MK2, 144 h, hMPV WT1501 (clinical isolate TN/1501/A1), 6 days
Outline: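 EC50 derived by four-parameter logistic fit of percent cell health, measured by ATP-Lite luminescence and normalised to virus-only and uninfected-cell controls. Compounds run in duplicate from 10 μM top, 3-fold, 10 points. Infection: LLC-MK2 cells, MOI 0.014, 2 μg/mL final TPCK-trypsin, serum-free, 6 days at 37° C.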

[3] = RSV-A Long strain, read-out: Human RSV-A (“Long”) EC50
[4] = genotype A “Long” strain RSV, read-out: Human RSV-A (“Long”)

Structure (SMILES) | EC50 [1, 3] [nM] | EC50 [2] [nM] | EC50 [1, 4] [nM]
Cc1cnc2c(OC(F)F)cc(C(=O)NC[C@](O)(c3cc4c(c(-c5ccc(F)c(Cl)c5)n3)OC[C@]4(C(N)=O)C(F)F)C3CC3)cc2c1 [Example 1028] | > 200 | > 500 | 
Cc1nn(-c2ccccc2)cc1C(=O)NC[C@](O)(c1cc2c(c(-c3ccc(F)cc3)n1)OC[C@]2(C)C(N)=O)C1CC1 [Example 486] |  | > 500 | < 200
C[C@]1(C(N)=O)COc2c1cc([C@@](O)(CNC(=O)c1cc(OC3CC3)c3nc(Cl)ccc3c1)C1CC1)nc2-c1ccc(F)cc1 [Example 1193] | < 200 | > 500 | 
COc1cc(C(=O)NC[C@](O)(c2cc3c(c(-c4ccc(F)c(Cl)c4F)n2)OC[C@]3(C)C(N)=O)C(F)(F)F)cc2cn(C3(F)CC3)nc12 [Example 550] |  | < 500 | < 200
COc1cc(C(=O)NC[C@](O)(c2cc3c(c(-c4ccc(F)cc4)n2)OC[C@]3(C)C(N)=O)C2(F)CC2)cc2cn(C3CC3)nc12 [Example 705] |  | < 500 | < 200
Cc1cnc2c(Cl)cc(C(=O)NC[C@](O)(c3cc4c(c(-c5ccc(F)cc5)n3)OC[C@]4(C)C(N)=O)C3(F)CC3)cc2c1 [Example 738] |  | < 500 | < 200
C[C@]1(C(N)=O)COc2c1cc([C@@](O)(CNC(=O)c1cc(OCC3CC3)c3nn(C4(F)CC4)cc3c1)C(F)(F)F)nc2-c1cc(Cl)c(F)cc1F [Example 616] |  | < 500 | < 200
COc1cc(C(=O)NC[C@](O)(c2cc3c(c(-c4ccc(Cl)cc4F)n2)OC[C@]3(C)C(N)=O)C2CC2)cc2cn(C3(Cl)CC3)nc12 [Example 843] | < 200 | < 500 | 
COc1cc(C(=O)NC[C@](O)(c2cc3c(c(-c4cc(F)c(F)c(Cl)c4)n2)OC[C@]3(C)C(N)=O)C(F)(F)F)cc2cn(C3CC3)nc12 [Example 782] |  | < 500 | < 200
COc1cc(C(=O)NC[C@](O)(c2nc(-c3cc(Cl)c(F)cc3F)c3c(c2F)[C@@](C)(C(N)=O)CO3)C2CC2)cc2cn(C(F)F)nc12 [Example 1162] | < 200 | < 500 | 
COc1cc(C(=O)NC[C@](O)(c2cc3c(c(-c4ccc(F)c(Cl)c4F)n2)OC[C@]3(C)C(N)=O)C2(F)CC2)cc2cn(C3CC3)nc12 [Example 752] |  | < 500 | < 200
COc1cc(C(=O)NC[C@](O)(c2cc3c(c(-c4ccc(F)c(Cl)c4F)n2)OC[C@]3(C)C(N)=O)C2(F)CC2)cc2cn(C(F)F)nc12 [Example 754] |  | < 500 | < 200
Cc1cnc2c(OC(F)F)cc(C(=O)NC[C@](O)(c3cc4c(c(-c5cc(Br)c(F)cc5F)n3)OC[C@]4(C)C(N)=O)C3CC3)cc2c1 [Example 1106] | < 200 | < 500 | 
COc1cc(C(=O)NC[C@](O)(c2cc3c(c(-c4ccc(F)c(F)c4)n2)OC[C@]3(C)C(N)=O)C2CC2)cc2cn(C3CC3)nc12 [Example 534] |  | < 500 | < 200
Cc1nc2c(Cl)cc(C(=O)NC[C@](O)(c3cc4c(c(-c5ccc(F)c(Cl)c5)n3)OC[C@]4(C)C(N)=O)C(F)(F)F)cc2cc1Cl [Example 884] | < 200 | > 500 | 
COc1cc(C(=O)NC[C@](O)(c2cc3c(c(-c4ccc(F)cc4)n2)OC[C@]3(C)C(N)=O)C2(F)CC2)cc2cn(C(F)F)nc12 [Example 711] |  | < 500 | < 200

Structure (SMILES) | EC50 [1, 3] [nM] | EC50 [2] [nM] | EC50 [1, 4] [nM]
C[C@]1(C(N)=O)COc2c1cc([C@@](O)(CNC(=O)c1cc(OC3CC3)c3nn(C4(F)CC4)cc3c1)C(F)(F)F)nc2-c1csc2c(F)cccc12 [Example 605] |  | < 500 | < 200
COc1cc(C(=O)NC[C@](O)(c2cc3c(c(-c4ccc(F)c(F)c4Cl)n2)OC[C@]3(C)C(N)=O)C2CC2)cc2cc(C)cnc12 [Example 1195] | < 200 | < 500 | 
COc1cc(C(=O)NC[C@](O)(c2cc3c(c(-c4cccc(C5CC5)c4)n2)OC[C@]3(C)C(N)=O)C(F)(F)F)cc2cn(C3CC3)nc12 [Example 977] | < 200 | > 500 | 
C[C@]1(C(N)=O)COc2c1cc([C@@](O)(CNC(=O)c1cc(OC3CC3)c3nn(C(F)F)cc3c1)C1CC1)nc2-c1ccc(F)c(Cl)c1F [Example 568] |  | < 500 | < 200
Cc1cnc2c(OC(F)F)cc(C(=O)NC[C@](O)(c3cc4c(c(-c5ccc(F)cc5)n3)OC[C@@]4(CF)C(N)=O)C3CC3)cc2c1 [Example 1057] | > 200 | > 500 | 
COc1cc(C(=O)NC[C@](O)(c2cc3c(c(-c4ccc(-c5ccccc5)cc4)n2)OC[C@]3(C)C(N)=O)C(F)(F)F)cc2cn(C3CC3)nc12 [Example 1249] | > 200 | > 500 | 
COc1ccc(C(=O)NC[C@](O)(c2cc3c(c(-c4ccc(F)cc4)n2)OC[C@]3(C)C(N)=O)C(F)(F)F)cc1NC(=O)NC1CC1 [Example 625] |  | > 500 | < 200
COc1cc(C(=O)NC[C@](O)(c2cc3c(c(-c4cc(Br)c(F)cc4F)n2)OC[C@]3(C)C(N)=O)C2CC2)cc2cc(Cl)c(C)nc12 [Example 1094] | < 200 | < 500 | 
C[C@]1(C(N)=O)COc2c1cc([C@@](O)(CNC(=O)c1cc(F)cc(NC(=O)NC3CC3)c1)C(F)(F)F)nc2-c1ccc(F)cc1 [Example 628] |  | > 500 | > 200
COc1cc(C(=O)NC[C@](O)(c2cc3c(c(-c4csc5c(F)cccc45)n2)OC[C@]3(C)C(N)=O)C(F)(F)F)cc2cc(Cl)c(C)nc12 [Example 596] |  | < 500 | < 200
C[C@@H](O)COc1ccc(C(=O)NC[C@](O)(c2cc3c(c(-c4ccc5c(c4)OC(F)(F)O5)n2)OC[C@]3(C)C(N)=O)C(F)(F)F)cc1OC1CC1 [Example 818] |  | < 500 | < 200
COc1cc(C(=O)NC[C@](O)(c2cc3c(c(-c4ccc(F)cc4)n2)OC[C@@]3(C(N)=O)C(F)F)C(F)(F)F)cc2cn(C3CC3)nc12 [Example 999] | < 200 | < 500 | 
C[C@]1(C(N)=O)COc2c1cc([C@@](O)(CNC(=O)c1cc(Cl)c3nn(C4CC4)cc3c1)C1CC1)nc2-c1ccc(C(F)(F)F)cc1 [Example 795] |  | > 500 | < 200
Cc1cnc2c(Cl)cc(C(=O)NC[C@](O)(c3cc4c(c(-c5ccc(F)c(F)c5F)n3)OC[C@]4(C)C(N)=O)C3CC3)cc2c1 [Example 531] |  | < 500 | < 200
COc1cc(C(=O)NC[C@](O)(c2cc3c(c(-c4ccc(F)c(Cl)c4)n2)OC[C@]3(C)C(N)=O)C2CC2)cc2cn(C3(Cl)CC3)nc12 [Example 841] | < 200 | < 500 | 

Continued, values first:

EC50 [1, 3] [nM] | EC50 [2] [nM] | EC50 [1, 4] [nM] | Structure (SMILES)
< 200 | < 500 |  | COc1cc(C(=O)NC[C@](O)(c2cc3c(c(-c4cccc(F)c4Cl)n2)OC[C@]3(C)C(N)=O)C(F)(F)F)cc2cc(Br)cnc12 [Example 1121]
< 200 | < 500 |  | COc1cc(C(=O)NC[C@](O)(c2cc3c(c(-c4c(F)cc(Cl)cc4F)n2)OC[C@]3(C)C(N)=O)C2CC2)cc2cn(C3(F)CC3)nc12 [Example 1157]
< 200 | < 500 |  | C[C@]1(C(N)=O)COc2c1cc([C@@](O)(CNC(=O)c1ccc3nn(C4CC4)cc3c1)C1CC1)nc2-c1ccc2c(c1)OC(F)(F)O2 [Example 831]
< 200 | < 500 |  | COc1cc(C(=O)NC[C@](O)(c2nc(-c3ccc(F)cc3)c3c(c2F)[C@@](C)(C(N)=O)CO3)C(F)(F)F)cc2cn(C3CC3)nc12 [Example 851]
 | < 500 | < 200 | CC[C@](O)(CNC(=O)c1cc(OC)c2nc(C)c(Cl)cc2c1)c1cc2c(c(-c3ccc(F)cc3)n1)OC[C@]2(C)C(N)=O [Example 643]
 | < 500 | < 200 | Cc1cnc2c(OC(F)F)cc(C(=O)NC[C@](O)(c3cc4c(c(-c5ccc(F)c(Cl)c5)n3)OC[C@]4(C)C(N)=O)C3CC3)cc2c1 [Example 496]
 | < 500 | < 200 | Cc1cnc2c(OC(F)F)cc(C(=O)NC[C@](O)(c3cc4c(c(-c5ccc(F)c(F)c5F)n3)OC[C@]4(C)C(N)=O)C(F)(F)F)cc2c1 [Example 523]
 | < 500 | < 200 | C[C@]1(C(N)=O)COc2c1cc([C@@](O)(CNC(=O)c1cc(Cl)c3nn(C4CC4)cc3c1)C(F)(F)F)nc2-c1ccc2c(c1)OC(F)(F)O2 [Example 546]
 | < 500 | < 200 | COc1cc(C(=O)NC[C@](O)(c2cc3c(c(-c4ccc(F)c(F)c4Cl)n2)OC[C@]3(C)C(N)=O)C2CC2)cc2cn(C3CC3)nc12 [Example 533]
< 200 | < 500 |  | COc1cc(C(=O)NC[C@](O)(c2cc3c(c(-c4cc(F)c(Cl)cc4F)n2)OC[C@]3(C)C(N)=O)C2CC2)cc2cn(C(F)F)nc12 [Example 1178]
 | < 500 | < 200 | COc1cc(C(=O)NC[C@](O)(c2cc3c(c(-c4csc5c(F)cccc45)n2)OC[C@]3(C)C(N)=O)C(F)(F)F)cc2cn(C3(F)CC3)nc12 [Example 599]
 | < 500 | < 200 | COc1cc(C(=O)NC[C@](O)(c2cc3c(c(-c4ccc(F)c(Cl)c4F)n2)OC[C@]3(C)C(N)=O)C2CC2)cc2cn(C3CC3)nc12 [Example 554]
 | < 500 | < 200 | COc1cc(C(=O)NC[C@](O)(c2cc3c(c(-c4ccc5c(c4)OC(F)(F)O5)n2)OC[C@]3(C)C(N)=O)C2CC2)cc2cc(Cl)c(C)nc12 [Example 825]
 | < 500 | < 200 | COc1cc(C(=O)NC[C@](O)(c2cc3c(c(-c4ccc(F)cc4)n2)OC[C@]3(C)C(N)=O)C2(F)CC2)cc2sc(C3CC3)nc12 [Example 742]
